Measured values reported in PubChem BioAssay (NCI).
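The compound was tested at five concentrations on cells cultured in 96-well plates, with a 48-hour exposure period. TGI denotes the concentration required for complete inhibition of growth.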

Legend:
Test in all cases: NCI-60 cell line screen, 48 h
[1] = test system: OVCAR-8 ovarian
[2] = test system: HOP-92 NSCLC
[3] = test system: DU-145 prostate
[4] = test system: HT29 colon
[5] = test system: PC-3 prostate
[6] = test system: SN12C renal
[7] = test system: SF-539 CNS
[8] = test system: IGROV1 ovarian
[9] = test system: MCF7 breast
[10] = test system: MDA-MB-231 breast
[11] = test system: SK-OV-3 ovarian
[12] = test system: OVCAR-3 ovarian
[13] = test system: SF-268 CNS
[14] = test system: KM12 colon
[15] = test system: K-562 leukemia
[16] = test system: SK-MEL-28 melanoma
[17] = test system: A549 NSCLC
[18] = test system: SF-295 CNS
[19] = test system: HL-60(TB) leukemia
[20] = test system: NCI-H460 lung

Row | Compound | TGI [1] | TGI [2] | TGI [3] | TGI [4] | TGI [5] | TGI [6] | TGI [7] | TGI [8] | TGI [9] | TGI [10] | TGI [11] | TGI [12] | TGI [13] | TGI [14] | TGI [15] | TGI [16] | TGI [17] | TGI [18] | TGI [19] | TGI [20]
1 | C/C(=C\[C@H]1C[C@@H]([C@@H]2CC[C@]34C[C@]23C=C[C@@H]2[C@@]3(C)CC=C5C[C@@H](c6ccccc6)OC[C@]5(C)[C@@H]3C[C@@H](O)[C@]24C)C(=O)O1)CO | > 100 µM | 28.1 µM | > 67.9 µM | 7.85 µM | > 55.6 µM | 5.57 µM | 35.1 µM | 20.5 µM | > 100 µM | 54.4 µM | > 61.8 µM | > 100 µM | > 70.1 µM | 15.3 µM | > 100 µM | > 100 µM | > 100 µM | 15.7 µM |  | 
2 | O=C1/C(=C/c2cccc([N+](=O)[O-])c2)N=C(c2ccccc2)N1c1ccc2c(c1)Sc1cc(N3C(=O)/C(=C/c4cccc([N+](=O)[O-])c4)N=C3c3ccccc3)ccc1N2 | 78.8 µM | 85.2 µM | > 100 µM | > 100 µM | 52.8 µM |  |  | 45.3 µM | 37.9 µM | 89.8 µM | 30.9 µM | 28.4 µM | 40.5 µM | > 100 µM | 96.7 µM | > 100 µM | > 100 µM | 32.6 µM | 64.6 µM | > 100 µM
3 | CC1(c2nc3cc(Cl)c(Cl)cc3[nH]2)CCC(C(=O)O)C(C)(C)O1 (configuration not stated) | > 100 µM | > 100 µM | > 100 µM | > 100 µM | > 100 µM | > 100 µM | > 100 µM | > 100 µM | > 100 µM | > 100 µM | > 100 µM | > 100 µM | > 100 µM | > 100 µM | > 100 µM | > 100 µM | > 100 µM | > 100 µM | > 100 µM | 
4 | CC(C)[C@H](NC(=O)[C@@H](O)[C@H](N)Cc1ccccc1)C(=O)N[C@@H](Cc1ccccc1)C(=O)O | > 100 µM | > 100 µM | > 100 µM |  | > 100 µM | > 100 µM |  | > 100 µM | > 100 µM | > 100 µM | > 100 µM | > 100 µM | > 100 µM | > 100 µM | > 100 µM | > 100 µM | > 100 µM | > 100 µM | > 100 µM | > 100 µM
5 | O=C(CN1C(=O)c2ccccc2C1=O)OCC1CCCN2CCCCC12 (configuration not stated) | > 100 µM | > 100 µM | > 100 µM | > 100 µM | > 100 µM | > 100 µM | > 100 µM |  | > 100 µM | > 100 µM | > 100 µM |  | > 100 µM | > 100 µM | > 100 µM | > 100 µM | > 100 µM | > 100 µM | > 100 µM | > 100 µM
6 | C[C@]12CCC(=O)C=C1CC[C@@H]1[C@@H]2CC[C@]2(C)C(=O)/C(=C\c3ccccc3)C[C@@H]12 | > 100 µM | > 86.8 µM | > 100 µM | > 100 µM | > 53.3 µM | 31.9 µM | > 63.6 µM | > 100 µM | > 56.1 µM | > 100 µM | > 100 µM | > 77.1 µM |  | > 64.3 µM | > 100 µM | > 81.4 µM | > 68 µM | > 80.3 µM | > 50.5 µM | > 66 µM
7 | Cn1c(=O)c2c(nc3sc4ncccc4c(=O)n32)n(C)c1=O | > 100 µM | > 100 µM | > 100 µM | > 100 µM | > 100 µM | > 100 µM | > 100 µM | > 100 µM | > 100 µM | > 100 µM | > 100 µM | > 100 µM | > 100 µM | > 100 µM |  | > 100 µM |  | > 100 µM | > 100 µM | > 100 µM
8 | CO/N=C/c1c(-c2ccc(Cl)cc2)c(/C=N/OC)n2c1sc1ccccc12 | > 100 µM | > 100 µM | > 100 µM | > 100 µM | > 100 µM | > 100 µM |  | > 100 µM | > 100 µM | > 100 µM | > 100 µM | > 100 µM | > 100 µM | > 100 µM | > 100 µM | > 100 µM | > 100 µM | > 100 µM | > 100 µM | > 100 µM
9 | COc1ccc(N2C(=O)CC(c3c[nH]c4ccccc34)C2=O)cc1 (configuration not stated) | > 100 µM | > 100 µM | > 100 µM | > 100 µM | > 100 µM | > 100 µM | > 100 µM | > 100 µM | > 100 µM | > 100 µM | > 100 µM | > 100 µM | > 100 µM |  | > 100 µM | > 100 µM | > 100 µM | > 100 µM | > 100 µM | > 100 µM
10 | C=C1C(=O)O[C@H]2[C@H]3O[C@@H](C[C@@H]12)[C@](C)(O)CCCC(C)=CCC[C@H]3C | 21 µM | 8.45 µM | 39.6 µM | 26.7 µM | 25.7 µM | 71.4 µM | 26.9 µM | 5.05 µM | 29.8 µM | 35.8 µM | 35.3 µM | 27.5 µM | 20.7 µM | 27.1 µM | 64.7 µM | 25.9 µM | 33.6 µM | 31.7 µM |  | 30.5 µM
11 | Oc1ccc2c3c1OC1c4[nH]c5c(c4CC4(O)C(C2)N(CC2CC2)CC[C@]314)CC1(O)C2Cc3ccc(O)c4c3[C@@]1(CCN2CC1CC1)C5O4 (some centres not stated) | > 100 µM | 85 µM | > 100 µM | 38.3 µM | > 100 µM | > 100 µM |  | > 100 µM | > 100 µM | 46.1 µM | > 100 µM | 35.8 µM | 49.4 µM | 32.2 µM | 63.9 µM | 41.4 µM | 37.6 µM | 40 µM | 41.4 µM | 
12 | Cc1ccc(S(=O)(=O)N/N=C2/CC[C@H](C(C)(C)C)C[C@@H]2C)cc1 | 29.9 µM | 33.4 µM | 30.3 µM | 30.7 µM | 36.8 µM | 30.4 µM | 32.5 µM | 30 µM | 32.8 µM | 43.7 µM | 36.6 µM | 25.2 µM |  | 49.7 µM | 42.1 µM | 32.8 µM | 33.4 µM | 29.2 µM | > 100 µM | 32.2 µM
13 | CCOC(=O)C1C(=O)CC(C)(O)C(C(=O)OCC)C1c1ccc(OC)cc1 (configuration not stated) | > 100 µM | > 100 µM | > 100 µM | > 100 µM | > 100 µM | > 100 µM | > 100 µM | > 100 µM | > 100 µM | > 100 µM |  | > 100 µM | > 100 µM | > 100 µM | > 100 µM | > 100 µM | > 100 µM | > 100 µM | > 100 µM | > 100 µM
14 | CC1OC2OC3C(OCC(O)C3O)OC(=O)[C@]34CCC(C)(C)CC3C3=CCC5[C@@]6(C)C[C@H](O)[C@H](OC7OC(CO)C(O)C(O)C7OC7OC(COC(=O)CC(C)(O)CC(=O)OC1C(O)C2O)C(O)C(O)C7O)[C@@](C)(CO)C6CC[C@@]5(C)[C@]3(C)CC4 (some centres not stated) | 3.1 µM | 2.94 µM | 3.02 µM | 3.18 µM | 2.56 µM | 4.37 µM | 11.9 µM | 2.54 µM | 15.2 µM | 3.11 µM | 2.79 µM | 3.15 µM | 2.97 µM | 2.89 µM |  | 2.79 µM | 2.63 µM | 3.1 µM | 2.87 µM | 4.45 µM
15 | CC(C)(C)OC(=O)N1C(=O)OC[C@@H]2C=C[C@@H]21 | > 100 µM | > 100 µM | > 100 µM | > 100 µM | > 100 µM | > 100 µM | > 100 µM | > 100 µM | > 100 µM | > 100 µM | > 100 µM | > 100 µM | > 100 µM | > 100 µM |  | > 100 µM | > 100 µM | > 100 µM | > 100 µM | > 100 µM
16 | COc1ccc2nc(-c3ccc(O)cc3)cn2c1 | > 100 µM | > 100 µM | > 100 µM | > 100 µM | > 100 µM | > 100 µM | > 100 µM | > 100 µM | > 100 µM | > 100 µM | > 100 µM | > 100 µM | > 100 µM | > 100 µM | > 100 µM | > 100 µM | > 100 µM | > 100 µM |  | > 100 µM
17 | Cc1ccc2cccc(OC(=O)c3cc4c(cc3Cl)Sc3nccn3S4(=O)=O)c2n1 | 28.8 µM | 68 µM | 18.1 µM | 44.5 µM | 14.7 µM | > 100 µM | 17.2 µM | 17.5 µM | 18.4 µM | 29.3 µM | 84.2 µM | 11.6 µM | > 100 µM | 18.7 µM | 23.9 µM | 30.8 µM | 28.5 µM | 29.7 µM |  | 10.4 µM
